This note sets out measurements from patent publication US7691594B2, “Anticancer agent” (Fujifilm Corporation, priority 2006, dated 2010).

The subject of test [1] is messenger RNA of PCDH20 gene in ABC-1 cells. As to the kind of experiment: RT-PCR of PCDH20 gene messenger RNA expression after inhibitor treatment, ABC-1 cells. Format: cell-based, human. The protocol:
(§1) Specifically, the results were obtained by adding either 5-aza-deoxycytidine (5-aza-dCyd) serving as a DNA methyltransferase inhibitor to each cell type at concentrations of 5 or 10 μM for 5 days and/or trichostatin A (TSA) serving as a non-specific inhibitory substance for histone deacetylase to each cell type at concentrations of […] or […] for 12 hours before cell harvest during culture, and then carrying out RT-PCR, followed by comparison of the expression levels of PCDH20 gene messenger RNA via electrophoresis. The expression level of GAPDH was used as a control in RT-PCR.
(§2) Cell lines used herein were squamous cell lines EBC-1, LK-2, PC10, VMRC-LCP, LC-1sq, and ACC-LC-73; adenocarcinoma cell lines 11-18, A549, ABC-1, RERF-LC-OK, VMRC-LCD, SK-LC-3, and RERF-LC-KJ; and large cell carcinoma cell lines KNS-62, 86-2, LU65, PC-13, ACC-LC-33, NCI-H460, and LU99A. As lung cancer samples derived from clinical specimens, paraffin-embedded samples derived from 53 types of adenocarcinoma and rapidly-frozen samples derived from 59 types of adjacent normal site were used. Cancer samples derived from clinical specimens were obtained from the National Cancer Center, Hokushin General Hospital of Nagano Prefectural Welfare Federation and used under agreement with each patient and approval of the ethical committee of each organization. […]

The subject of test [2] is messenger RNA of PCDH20 gene in LU65 cells. Briefly: RT-PCR of PCDH20 gene messenger RNA expression after inhibitor treatment, LU65 cells. The class given is cell-based, human. The protocol:
as §1, §2

Setting [3] is: 5-aza-dCyd 5 μM and 10 μM for 5 days, GAPDH control.
The mark [4] stands for this setting: TSA 100 ng/ml for 12 hours before harvest together with 5-aza-dCyd.

Take `Nc1ncn([C@H]2C[C@H](O)[C@@H](CO)O2)c(=O)n1` [5-aza-deoxycytidine]: the “expression level of messenger RNA of PCDH20 gene (RT-PCR)” value in test [1] (setting [3]) and in test [2] (setting [3]) was “transcription suppression was canceled” in each case.

`CC(/C=C/C(=O)NO)=C\[C@@H](C)C(=O)c1ccc(N(C)C)cc1` [trichostatin A]: the “expression level of messenger RNA of PCDH20 gene (RT-PCR), combination” value in test [1] (setting [4]) and in test [2] (setting [4]) was “elevated synergistically” throughout.
